{
  "source": "paper PMC7575488",
  "about": "“Phase 1 dose-escalation study of a novel oral PI3K/mTOR dual inhibitor, LY3023414, in patients with cancer” (Investigational New Drugs, 2020)",
  "key": {"[1]": {"assay": "Blood pharmacokinetics (dried blood spot LC-MS/MS, non-compartmental analysis)", "type": "in vivo, human", "conditions": "for CL/F: based on AUC0-∞; for CL/F (CLss/F): Cycle 1 Day 15 (multiple dose, steady state); for Tmax / half-life / Vd/F / AUC(0-inf) / Cmax / AUC(0-t): human, oral; for Vd/F: read-out: Vz/F; for AUC(0-t): tlast 12 h (AUCτ), read-out: AUC0-tlast", "experimental": "For PK assessment, blood samples were collected at pre dose and 0.5, 1, 2, 4, 8, and 12 h post dose on 2 occasions: (i) on Day 1 of Cycle 1 (single dose), and (ii) on Day 15 of Cycle 1 (multiple dose). For PD assessment, blood samples were collected at pre dose and 0.5, 1, 2, and 4 h post dose on 2 occasions: (i) on Day 1 of Cycle 1 (single dose), and (ii) on Day 15 of Cycle 1 (multiple dose).\nBlood concentrations of LY3023414 were assayed using a validated dried blood spot liquid chromatography-mass spectrometry/mass spectrometry method at a designated laboratory. The PK parameter estimates for LY3023414 were calculated by standard non-compartmental methods of analysis using Phoenix WinNonlin® 8.0 (Certara, L.P.; Princeton, NJ, USA). The primary parameters for analysis were maximum observed blood concentration (Cmax), time of Cmax (tmax), area under the blood concentration-time curve from time zero to the last measurable blood concentration (AUC0-tlast), and area under the blood concentration-time curve from time zero to infinity (AUC0-∞) of LY3023414. Other non-compartmental parameters, such as half-life (t1/2), apparent total body clearance (CL/F) on Cycle 1 Day 1, apparent total body clearance at steady state (CLss/F) on Cycle 1 Day 15, and apparent volume of distribution during the terminal phase (Vz/F), were also assessed."}, "[2]": {"test_system": "PI3K/AKT/mTOR downstream pathway", "parameters": "method as in PMID 27439478", "conditions": "in vitro; cited from earlier work"}, "[3]": {"conditions": "whole blood, 150 mg, 150 mg BID, Cycle 1 Day 1 (single dose), blood, N = 3, geometric mean (% CV)"}, "[4]": {"conditions": "whole blood, 150 mg, 150 mg BID, Cycle 1 Day 15 (multiple dose), blood, N = 3, geometric mean (% CV)"}, "[5]": {"conditions": "whole blood, 200 mg, 200 mg BID, Cycle 1 Day 1 (single dose), blood, N = 9, geometric mean (% CV)"}, "[6]": {"conditions": "whole blood, 200 mg, 200 mg BID, Cycle 1 Day 15 (multiple dose), blood, N = 7, geometric mean (% CV)"}},
  "note": "Where two headings read alike, the source gives them in different places. Marks after values point to notes of the source that are not given here.",
  "data": [
    {"smiles": "CO[C@@H](C)Cn1c(=O)n(C)c2cnc3ccc(-c4cncc(C(C)(C)O)c4)cc3c21", "note": "[LY3023414]", "values": [
      {"measurement": "CL/F", "setting": "[1]; 150 mg BID, Cycle 1 Day 1 (single dose), N = 3, geometric mean (% CV)", "value": "49.2 (19) L/hr"},
      {"measurement": "CL/F (CLss/F)", "setting": "[1]; 150 mg BID, N = 3, geometric mean (% CV)", "value": "30.4 (45) L/hr"},
      {"measurement": "CL/F", "setting": "[1]; 200 mg BID, Cycle 1 Day 1 (single dose), N = 8, geometric mean (% CV 29)", "value": "48.5^c (29) L/hr"},
      {"measurement": "CL/F (CLss/F)", "setting": "[1]; 200 mg BID, N = 7, geometric mean (% CV)", "value": "48.6 (33) L/hr"},
      {"measurement": "Tmax", "setting": "[1]; whole blood (dried blood spot), 200 mg, post administration, each dose level (150 and 200 mg), read-out: median tmax", "value": "1 to 3", "unit": "h"},
      {"measurement": "half-life", "setting": "[1]; whole blood (dried blood spot), Days 1 and 15 in Cycle 1, each dose level, read-out: geometric mean t1/2 (converted)", "value": "~120", "unit": "min"},
      {"measurement": "Vd/F", "setting": "[1]; whole blood, 150 mg, 150 mg BID, Cycle 1 Day 1 (single dose), N = 3, geometric mean (% CV)", "value": 113, "unit": "L"},
      {"measurement": "AUC(0-inf)", "setting": "[1]; [3]", "value": 3050, "unit": "ng·h/mL"},
      {"measurement": "Cmax", "setting": "[1]; [3]", "value": 792, "unit": "ng/mL"},
      {"measurement": "half-life", "setting": "[1]; whole blood, 150 mg, 150 mg BID, Cycle 1 Day 1 (single dose), blood, N = 3, geometric mean (range), read-out: t1/2 (converted)", "value": 95.4, "unit": "min"},
      {"measurement": "Tmax", "setting": "[1]; whole blood, 150 mg, 150 mg BID, Cycle 1 Day 1 (single dose), blood, N = 3, median (range), read-out: tmax", "value": 2.93, "unit": "h"},
      {"measurement": "AUC(0-t)", "setting": "[1]; [3]", "value": 3000, "unit": "ng·h/mL"},
      {"measurement": "Vd/F", "setting": "[1]; whole blood, 150 mg, 150 mg BID, Cycle 1 Day 15 (multiple dose), N = 3, geometric mean (% CV)", "value": 79.3, "unit": "L"},
      {"measurement": "AUC(0-inf)", "setting": "[1]; [4]", "value": 5010, "unit": "ng·h/mL"},
      {"measurement": "Cmax", "setting": "[1]; [4]", "value": 1570, "unit": "ng/mL"},
      {"measurement": "half-life", "setting": "[1]; whole blood, 150 mg, 150 mg BID, Cycle 1 Day 15 (multiple dose), blood, N = 3, geometric mean (range), read-out: t1/2 (converted)", "value": 109, "unit": "min"},
      {"measurement": "Tmax", "setting": "[1]; whole blood, 150 mg, 150 mg BID, Cycle 1 Day 15 (multiple dose), blood, N = 3, median (range), read-out: tmax", "value": 1, "unit": "h"},
      {"measurement": "AUC(0-t)", "setting": "[1]; [4]", "value": 4920, "unit": "ng·h/mL"},
      {"measurement": "Vd/F", "setting": "[1]; whole blood, 200 mg, 200 mg BID, Cycle 1 Day 1 (single dose), N = 8, geometric mean (% CV 35)", "value": 136, "unit": "L"},
      {"measurement": "AUC(0-inf)", "setting": "[1]; whole blood, 200 mg, 200 mg BID, Cycle 1 Day 1 (single dose), blood, N = 8, geometric mean (% CV 29)", "value": 4120, "unit": "ng·h/mL"},
      {"measurement": "half-life", "setting": "[1]; whole blood, 200 mg, 200 mg BID, Cycle 1 Day 1 (single dose), blood, N = 8, geometric mean (range 1.52–3.15), read-out: t1/2 (converted)", "value": 116, "unit": "min"},
      {"measurement": "Cmax", "setting": "[1]; [5]", "value": 1020, "unit": "ng/mL"},
      {"measurement": "Tmax", "setting": "[1]; whole blood, 200 mg, 200 mg BID, Cycle 1 Day 1 (single dose), blood, N = 9, median (range), read-out: tmax", "value": 1.95, "unit": "h"},
      {"measurement": "AUC(0-t)", "setting": "[1]; [5]", "value": 4140, "unit": "ng·h/mL"},
      {"measurement": "Vd/F", "setting": "[1]; whole blood, 200 mg, 200 mg BID, Cycle 1 Day 15 (multiple dose), N = 7, geometric mean (% CV)", "value": 129, "unit": "L"},
      {"measurement": "AUC(0-inf)", "setting": "[1]; [6]", "value": 4210, "unit": "ng·h/mL"},
      {"measurement": "Cmax", "setting": "[1]; [6]", "value": 1010, "unit": "ng/mL"},
      {"measurement": "half-life", "setting": "[1]; whole blood, 200 mg, 200 mg BID, Cycle 1 Day 15 (multiple dose), blood, N = 7, geometric mean (range), read-out: t1/2 (converted)", "value": 110, "unit": "min"},
      {"measurement": "Tmax", "setting": "[1]; whole blood, 200 mg, 200 mg BID, Cycle 1 Day 15 (multiple dose), blood, N = 7, median (range), read-out: tmax", "value": 1.97, "unit": "h"},
      {"measurement": "AUC(0-t)", "setting": "[1]; [6]", "value": 4100, "unit": "ng·h/mL"},
      {"measurement": "Inhibition of phosphorylation of the PI3K/AKT/mTOR downstream pathway", "setting": "[2]", "value": "dose-dependent inhibition"}
    ]}
  ]
}
